Legend:
[1] = Solubilities (physico-chemical properties); type: physicochemical
[2] = Anthelmintic activities (general statement); conditions: no parasite or test named

Structure (SMILES): CC(C)C[C@H]1C(=O)O[C@H](C)C(=O)N(C)[C@@H](CC(C)C)C(=O)O[C@H](C)C(=O)N(C)[C@@H](CC(C)C)C(=O)O[C@H](C)C(=O)N(C)[C@@H](CC(C)C)C(=O)O[C@H](C)C(=O)N1C [PF 1022F substance]
- Solubilities: soluble in ([1]; chloroform, acetone, ethyl acetate, methanol and dimethylsulfoxide): Soluble
- Solubilities: insoluble in ([1]; water and n-hexane): Insoluble
- solubility in water ([1]; water, statement in the recovery description): insoluble in water
- anthelmintic activities [2]: having anthelmintic activities
